Results taken from patent US8247211B2, “Glycopeptide antibiotics” (American Cyanamid Company, priority 2001, dated 2012).
Converted amounts (≈) assume the structure as drawn.

Experiments:
Assay in all cases: In vitro antibacterial evaluation: minimum inhibitory concentration (MIC), broth dilution method
Type in all cases: cell-based
Enterococcus sp. = test system: Enterococcus sp.
In short: (§1)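 Using Muller-Hinton II […] and an inoculum of 5×10^5 CFU/mL, antibiotic dilutions from 64 down to 0.06 μg/mL were tested following NCCLS M7-A2. The MIC is the lowest concentration inhibiting growth, including in methicillin-, penicillin- or vancomycin-resistant clinical isolates.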

Staphylococcus sp. = conditions: for MIC Staphylococcus aureus (ATCC 29213) / MIC Staphylococcus aureus (GC 1131) / MIC Staphylococcus aureus (GC 3051) / MIC Staphylococcus aureus (GC 3053) / MIC Staphylococcus aureus (GC 4541) / MIC Staphylococcus aureus (GC 4542) / MIC Staphylococcus aureus (GC 4544) / MIC Staphylococcus aureus (GC 4545): broth dilution, 18 hours at 35° C.
In short: as §1

Escherichia coli = test system: Escherichia coli
In short: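 Inoculum: 5×10^5 CFU/mL. Range: 64-0.06 μg/mL. Medium: Muller-Hinton II […]; NCCLS M7-A2 broth dilution. Endpoint: lowest concentration inhibiting growth. Strains include methicillin-, penicillin- and/or vancomycin-resistant clinical isolates.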

Streptococcus sp. = test system: Streptococcus sp.
In short: as §1

[1] = broth dilution, inoculum 5×10^5 CFU/mL, 18 hours at 35° C.

MIC Enterococcus avium (GC 4558) (Enterococcus sp.; [1]): 4 µg/mL (≈ 2.61 µM)
MIC Enterococcus faecalis (ATCC 29212) (Enterococcus sp.; [1]): 2 µg/mL (≈ 1.31 µM)
MIC Enterococcus faecalis (GC 2242) (Enterococcus sp.; [1]): 2 µg/mL (≈ 1.31 µM)
MIC Enterococcus faecalis (GC 2691) (Enterococcus sp.; [1]): 4 µg/mL (≈ 2.61 µM)
MIC Enterococcus faecalis (GC 3059) (Enterococcus sp.; [1]): 4 µg/mL (≈ 2.61 µM)
MIC Enterococcus faecalis (GC 4552) (Enterococcus sp.; [1]): 2 µg/mL (≈ 1.31 µM)
MIC Enterococcus faecalis (GC 4553) (Enterococcus sp.; [1]): 1 µg/mL (≈ 0.653 µM)
MIC Enterococcus faecalis (GC 4554) (Enterococcus sp.; [1]): 2 µg/mL (≈ 1.31 µM)
MIC Enterococcus faecalis (GC 6189) (Enterococcus sp.; [1]): 2 µg/mL (≈ 1.31 µM)
MIC Enterococcus faecium (GC 2243) (Enterococcus sp.; [1]): 2 µg/mL (≈ 1.31 µM)
MIC Enterococcus faecium (GC 4556) (Enterococcus sp.; [1]): 4 µg/mL (≈ 2.61 µM)
MIC Enterococcus faecium (GC 4557) (Enterococcus sp.; [1]): 4 µg/mL (≈ 2.61 µM)
MIC Enterococcus faecalis (ATCC 29212) (Enterococcus sp.; strain ATCC 29212): 2 µg/mL (≈ 1.31 µM)
MIC Enterococcus faecalis (GC 2242) (Enterococcus sp.; strain GC 2242): 2 µg/mL (≈ 1.31 µM)
MIC Enterococcus faecium (GC 2243) (Enterococcus sp.; strain GC 2243): 2 µg/mL (≈ 1.31 µM)
MIC Enterococcus faecalis (GC 2691) (Enterococcus sp.; strain GC 2691): 4 µg/mL (≈ 2.61 µM)
MIC Enterococcus faecalis (GC 3059) (Enterococcus sp.; strain GC 3059): 4 µg/mL (≈ 2.61 µM)
MIC Enterococcus faecalis (GC 4552) (Enterococcus sp.; strain GC 4552): 2 µg/mL (≈ 1.31 µM)
MIC Enterococcus faecalis (GC 4553) (Enterococcus sp.; strain GC 4553): 1 µg/mL (≈ 0.653 µM)
MIC Enterococcus faecalis (GC 4554) (Enterococcus sp.; strain GC 4554): 2 µg/mL (≈ 1.31 µM)
MIC Enterococcus faecium (GC 4556) (Enterococcus sp.; strain GC 4556): 4 µg/mL (≈ 2.61 µM)
MIC Enterococcus faecium (GC 4557) (Enterococcus sp.; strain GC 4557): 4 µg/mL (≈ 2.61 µM)
MIC Enterococcus avium (GC 4558) (Enterococcus sp.; strain GC 4558): 4 µg/mL (≈ 2.61 µM)
MIC Enterococcus faecalis (GC 6189) (Enterococcus sp.; strain GC 6189): 2 µg/mL (≈ 1.31 µM)
MIC Staphylococcus aureus (ATCC 29213) (Staphylococcus sp.; 5×10^5 CFU/mL): 4 µg/mL (≈ 2.61 µM)
MIC Staphylococcus aureus (GC 1131) (Staphylococcus sp.; 5×10^5 CFU/mL): 4 µg/mL (≈ 2.61 µM)
MIC Staphylococcus aureus (GC 3051) (Staphylococcus sp.; 5×10^5 CFU/mL): 4 µg/mL (≈ 2.61 µM)
MIC Staphylococcus aureus (GC 3053) (Staphylococcus sp.; 5×10^5 CFU/mL): 4 µg/mL (≈ 2.61 µM)
MIC Staphylococcus aureus (GC 4541) (Staphylococcus sp.; 5×10^5 CFU/mL): 4 µg/mL (≈ 2.61 µM)
MIC Staphylococcus aureus (GC 4542) (Staphylococcus sp.; 5×10^5 CFU/mL): 4 µg/mL (≈ 2.61 µM)
MIC Staphylococcus aureus (GC 4544) (Staphylococcus sp.; 5×10^5 CFU/mL): 4 µg/mL (≈ 2.61 µM)
MIC Staphylococcus aureus (GC 4545) (Staphylococcus sp.; 5×10^5 CFU/mL): 4 µg/mL (≈ 2.61 µM)
MIC Staphylococcus aureus (ATCC 29213) (Staphylococcus sp.; strain ATCC 29213): 4 µg/mL (≈ 2.61 µM)
MIC Staphylococcus aureus (GC 1131) (Staphylococcus sp.; strain GC 1131): 4 µg/mL (≈ 2.61 µM)
MIC Staphylococcus aureus (GC 3051) (Staphylococcus sp.; strain GC 3051): 4 µg/mL (≈ 2.61 µM)
MIC Staphylococcus aureus (GC 3053) (Staphylococcus sp.; strain GC 3053): 4 µg/mL (≈ 2.61 µM)
MIC Staphylococcus aureus (GC 4541) (Staphylococcus sp.; strain GC 4541): 4 µg/mL (≈ 2.61 µM)
MIC Staphylococcus aureus (GC 4542) (Staphylococcus sp.; strain GC 4542): 4 µg/mL (≈ 2.61 µM)
MIC Staphylococcus aureus-SMITH (GC 4543) (Staphylococcus sp.; strain GC 4543): 4 µg/mL (≈ 2.61 µM)
MIC Staphylococcus aureus (GC 4544) (Staphylococcus sp.; strain GC 4544): 4 µg/mL (≈ 2.61 µM)
MIC Staphylococcus aureus (GC 4545) (Staphylococcus sp.; strain GC 4545): 4 µg/mL (≈ 2.61 µM)
MIC Coagulase Negative Staphylococcus (GC 4547) (Staphylococcus sp.; strain GC 4547): 8 µg/mL (≈ 5.22 µM)
MIC Coagulase Negative Staphylococcus (GC 4548) (Staphylococcus sp.; strain GC 4548): 2 µg/mL (≈ 1.31 µM)
MIC Coagulase Negative Staphylococcus (GC 4549) (Staphylococcus sp.; strain GC 4549): 1 µg/mL (≈ 0.653 µM)
MIC Coagulase Negative Staphylococcus (GC 4551) (Staphylococcus sp.; strain GC 4551): 2 µg/mL (≈ 1.31 µM)
MIC Coagulase Negative Staphylococcus (GC 6257) (Staphylococcus sp.; strain GC 6257): 2 µg/mL (≈ 1.31 µM)
MIC Escherichia coli (ATCC 25922) (Escherichia coli; strain ATCC 25922): >64 µg/mL
MIC Escherichia coli (GC 4559) (Escherichia coli; strain GC 4559): >64 µg/mL
MIC Escherichi coli (GC 4560) (Escherichia coli; strain GC 4560): 16 µg/mL (≈ 10.4 µM)
MIC Streptococcus agalactiae (GC 4564) (Streptococcus sp.; [1]): <0.06 µg/mL
MIC Streptococcus pneumoniae (ATCC 6301) (Streptococcus sp.; [1]): <0.06 µg/mL
MIC Streptococcus pneumoniae (GC 1894) (Streptococcus sp.; [1]): <0.06 µg/mL
MIC Streptococcus pneumoniae (GC 4565) (Streptococcus sp.; [1]): <0.06 µg/mL
MIC Streptococcus pyogenes (GC 4563) (Streptococcus sp.; [1]): 0.5 µg/mL (≈ 0.326 µM)
MIC Streptococcus pneumoniae (ATCC 6301) (Streptococcus sp.; strain ATCC 6301): <0.06 µg/mL
MIC Streptococcus pneumoniae (GC 1894) (Streptococcus sp.; strain GC 1894): <0.06 µg/mL
MIC Streptococcus pyogenes (GC 4563) (Streptococcus sp.; strain GC 4563): 0.5 µg/mL (≈ 0.326 µM)
MIC Streptococcus agalactiae (GC 4564) (Streptococcus sp.; strain GC 4564): <0.06 µg/mL
MIC Streptococcus pneumoniae (GC 4565) (Streptococcus sp.; strain GC 4565): <0.06 µg/mL
SMILES: CC(c1ccccc1)C1NC(=O)CNC(=O)C(CO)NC(=O)C(C(O)C2CNC(=N)N2C2OC(CO)C(O)C(O)C2O)NC(=O)C(C(O)C2CNC(=N)N2)NC(=O)C(Cc2ccc(OC3OC(CO)C(OC4OC5COC(c6ccc(Oc7ccc(C(C)(C)C)cc7)cc6)OC5C(O)C4O)C(O)C3O)cc2)NC1=O (stereo not drawn) [Example 181, Cyclo[glycyl-β-methylphenylalanyl-O-[4-O-[4,6-O-[4-(4-tert-butylphenoxy)benzylidene]hexopyranosyl]hexopyranosyl]tyrosyl-3-(2-iminoimidazolidin-4-yl)seryl-3-(3-hexopyranosyl-2-iminoimidazolidin-4-yl)serylseryl]]
MIC Staphylococcus haemolyticus (GC 4546) (Staphylococcus sp.; strain GC 4546): 8 µg/mL (≈ 5.22 µM)
